# Measurements: the NIST ThermoML archive (doi:10.1016/j.jct.2016.05.014)
# Values joined by “and” are separate entries in the source; they are usually repeats but may differ in a detail not shown here. Identical values can stand only once. Numbers after ± are expanded uncertainties.
# Legend:
# [1] = molar heat capacity at constant pressure; conditions: 101.33 kPa, Crystal, Small sample (50 mg) DSC
# [2] = Crystal
SMILES,molar heat capacity at constant pressure ([1]; 283.15 K),molar heat capacity at constant pressure ([1]; 288.15 K),molar heat capacity at constant pressure ([1]; 293.15 K),molar heat capacity at constant pressure ([1]; 298.15 K),molar heat capacity at constant pressure ([1]; 303.15 K),molar heat capacity at constant pressure ([1]; 308.15 K),molar heat capacity at constant pressure ([1]; 313.15 K),molar heat capacity at constant pressure ([1]; 318.15 K),molar heat capacity at constant pressure ([1]; 323.15 K),molar heat capacity at constant pressure ([1]; 328.15 K),molar heat capacity at constant pressure ([1]; 333.15 K),"mass density ([2]; 296 K, 101.33 kPa, X-ray diffraction)",Normal melting temperature ([2]; visual observation)
c1ccc2ccccc2c1 [naphthalene],158.4 ± 3.9 J/K/mol,161.6 ± 4 J/K/mol,164.8 ± 4.1 J/K/mol,168 ± 4.2 J/K/mol,171.2 ± 4.2 J/K/mol,174.5 ± 4.3 J/K/mol,177.8 ± 4.4 J/K/mol,181.1 ± 4.5 J/K/mol,184.5 ± 4.6 J/K/mol,187.9 ± 4.7 J/K/mol,191.3 ± 4.7 J/K/mol,,
CCCCC(C#N)(Cn1cncn1)c1ccc(Cl)cc1 (centres undefined),343.21 ± 9.5 J/K/mol and 340.09 ± 9.4 J/K/mol,349.62 ± 9.7 J/K/mol and 349.73 ± 9.7 J/K/mol,357.56 ± 9.9 J/K/mol and 356.25 ± 9.9 J/K/mol,364.3 ± 10 J/K/mol and 362.78 ± 10 J/K/mol,370.21 ± 10 J/K/mol and 369.3 ± 10 J/K/mol,375.66 ± 10 J/K/mol and 375.82 ± 10 J/K/mol,381.03 ± 11 J/K/mol and 382.35 ± 11 J/K/mol,386.69 ± 11 J/K/mol and 388.87 ± 11 J/K/mol,393.03 ± 11 J/K/mol and 395.39 ± 11 J/K/mol,400.42 ± 11 J/K/mol and 401.92 ± 11 J/K/mol,408.44 ± 11 J/K/mol and 409.23 ± 11 J/K/mol,1238 ± 6 kg/m3,70.30 ± 0.58 °C
